This is an account of results in patent US6642251B1, “Geometrically restricted 2-indolinone derivatives as modulators of protein kinase activity” (Sugen, Inc., priority 1998, dated 2003).

Assay [1] has as its target Pyk2 (Homo sapiens, UniProt Q14289). The assay is described as follows: Pyk2 assay. On Pyk2, outcome of primary assay: key: DNH = did not hit in primary assay. The assay is classed as biochemical.
The target of assay [2] is T1, src protein kinase (Gallus gallus, UniProt P00523).
T1 construct: made in house; host or cells: Schizosaccharomyces pombe strain SP200
The assay is described as follows: Biochemical src assay (bio SRC). On bio SRC, outcome of primary assay: key: DNH = did not hit in primary assay. Here is the method: This assay is used to determine src protein kinase activity measuring phosphorylation of a biotinylated peptide as the readout.
a. Yeast transformed with src (Sugen, Inc., Redwood City, Calif.).
1. Coat ELISA plate with 0.5 μg/well anti-src mab in 100 μl of pH 9.6 sodium carbonate buffer; hold at 4° C. overnight.
2. Wash wells once with PBS.
3. Block plate with 0.15 ml 5% milk in PBS for 30 min. at room temperature.
4. Wash plate 5× with PBS.
5. Add 10 μg/well of src transformed yeast lysates diluted in Lysis Buffer (0.1 ml total volume per well). (Amount of lysate may vary between batches.) Shake plate for 20 minutes at room temperature.
1. 4G10 plate: coat 0.5 μg/well 4G10 in 100 μl PBS overnight at 4° C. and block with 150 μl of 5% milk in PBS for 30 minutes at room temperature.
1. Remove unbound proteins.from plates and wash plates 5× with PBS.
2. Add 0.08 ml Kinase Reaction Mixture per well (containing 10 μl of 10×-Kinase Buffer and 10 μM (final concentration) biotin-EEEYEEYEEEYEEEYEEEY per well diluted in water.
3. Add 10 μl of compound diluted in water containing 10% DMSO and pre-incubate for 15 minutes at room temperature.
4. Start kinase reaction by adding 10 μl/well of 0.05 mM ATP in water (5 μM ATP final).
5. Shake ELISA plate for 15 min. at room temperature.
6. Stop kinase reaction by adding 10 μl of 0.5 M EDTA per well.
7. Transfer 90 μl supernatant to a blocked 4G10 coated ELISA plate.
8. Incubate for 30 min. while shaking at room temperature.
9. Wash plate 5× with TBST.
10. Incubate with Vectastain ELITE ABC reagent (100 μl/well) for 30 min. at room temperature.
11. Wash the wells 5× with TBST.
12. Develop with Turbo TMB.

Assay [3] has as its target T2, PDGFR (Homo sapiens, UniProt P09619).
T2 construct: expressed in transfected cells; host or cells: NIH 3T3
Kind of assay: Biochemical PDGFR assay (bio PDGFR), ELISA. The following applies: 50% inhibition of target PTK activity; read-out: bio PDGFR IC50. The protocol:
This assay measures the in vitro kinase activity of PDGFR using ELISA.
6. PDGFR-β expressing NIH 3T3 cell lysate (Screening Lab, SUGEN, Inc.).
1. Coat Corning 96 well ELISA plates with 0.5 μg 28D4C10 in 100 μl PBS per well, store overnight at 4° C.
2. Remove unbound 28D4C10 from wells by inverting plate to remove liquid. Wash 1× with dH2O. Pat the plate on a paper towel to remove excess liquid.
(§1) 3. Add 150 μl of Blocking Buffer to each well. Incubate for 30 min. at room temperature with shaking.
(§2) 4. Wash plate 3× with deionized water, then once with TBST. Pat plate on a paper towel to remove excess liquid and bubbles.
5. Dilute lysate in HNTG (10 μg lysate/100 μl HNTG)
(§3) 6. Add 100 μl of diluted lysate to each well. Shake at room temperature for 60 min.
(§4) 7. Wash plates as described in 4, above.
8. Add 80 μl working kinase buffer mix to ELISA plate containing captured PDGFR.
10. Add 10 μl diluted test compound to ELISA plate.
(§5) 11. Incubate for 30 minutes while shaking at room temperature.
12. Add 10 μl ATP directly to all wells except negative control well (final well volume should be approximately 100 μl with 20 μM ATP in each well.) Incubate 30 minutes while shaking.
13. After 30 minutes, stop reaction by adding 10 μl of 200 mM EDTA (pH 8.0) to each well.
(§6) 14. Wash 4× with deionized water, twice with TBST.
15. Add 100 μl anti-phosphotyrosine (1:3000 dilution in TBST) per well. Incubate 30-45 min. at room temperature, with shaking.
(§7) 16. Wash as described in 4, above.
17. […] Incubate 30 min. at room temperature, with shaking.
(§8) 18. Wash as described in 4, above.
(§9) 19. Add 100 μl of ABTS/H2O2 solution to each well.
20. Incubate 10 to 30 minutes with shaking. Remove any bubbles.
(§10) 21. If necessary stop reaction with the addition of 100 μl 0.2 M HCl per well.
(An ELISA detects its analyte on a solid surface through an enzyme-linked reagent.)

The target in assay [4] is EGFR (Homo sapiens, UniProt P00533). Kind of assay: Biochemical EGFR assay (bio EGFR), ELISA. Details: A431 cell lysate (Screening Lab, SUGEN, Inc.); endogenous in cells; host or cells: A431. The following applies: 50% inhibition of target PTK activity; read-out: bio EGFR (Page 5) IC50. Here is the method:
This assay measures the in vitro kinase activity of EGFR using ELISA.
6. A431 cell lysate (Screening Lab, SUGEN, Inc.)
1. Coat Corning 96 well ELISA plates with 0.5 μg […] in
100 μl PBS per well, store overnight at 4° C.
2. Remove unbound SUMO1 from wells by inverting plate to remove liquid. Wash 1× with dH2O. Pat the plate on a paper towel to remove excess liquid.
as §1, §2
5. Dilute lysate in PBS (7 μg lysate/100 μl PBS).
as §3, §4
8. Add 120 μl TBS to ELISA plate containing captured EGFR.
9. Dilute test compound 1:10 in TBS in 96-well polypropylene plates (ie. 10 μl compound+90 μl TBS).
10. Add 13.5 μl diluted test compound to ELISA plate.
as §5
13. After 5 minutes, stop reaction by adding 16.5 μl of 200 mM EDTA (pH 8.0) to each well, shaking continuously. After the EDTA has been added, shake for 1 min.
as §6
15. Add 100 μl anti-phosphotyrosine (1:3000 dilution.in TBST) per well. Incubate 30-45 min. at room temperature, with shaking.
as §7
17. Add 100 μl Biosource Goat anti-rabbit IgG peroxidase conjugate (1:2000 dilution in TBST) to each well. Incubate 30 min. at room temperature, with shaking.
as §8, §9
20. Incubate 5 to 10 minutes with shaking. Remove any bubbles.
as §10
22. Read assay on Dynatech MR7000 ELISA reader. Test Filter: 410 nM Reference Filter: 630 nM

Assay [5] concerns the target T3, IGF-1 receptor (Homo sapiens, UniProt P08069).
T3 construct: expressed in transfected cells; host or cells: NIH3T3/IGF-1R
Kind of assay: Cellular IGF-1 receptor assay (cell IGF). On cell IGF, outcome of primary assay: key: DNH = did not hit in primary assay. The format is cell-based. The protocol: The following protocol may be used to measure phosphotyrosine level on IGF-1 receptor, which indicates IGF-1 receptor tyrosine kinase activity.
a. The cell line used in this assay is 3T3/IGF-1R, a cell line genetically engineered to overexpresses IGF-1 receptor.
2. […] Incubate for 1 day then replace medium to serum-free medium (90/μl) and incubate in 5% CO2 and 37° C. overnight.
2. Remove the coating solution, and replace with 100 μl Blocking Buffer, and shake for 30 minutes. Remove the blocking buffer and wash the plate just before adding lysate.
1. The drugs are tested under serum-free condition.
2. Dilute drug stock (in 100% DMSO) 1:10 with DMEM in 96-well poly-propylene plate, and transfer 10 μl/well of this solution to the cells to achieve final drug dilution 1:100, and final DMSO concentration of 1.0%. Incubate the cells in 5% CO2 at 37° C. for 2 hours.
3. Prepare fresh cell lysis buffer (HNTG*)
4. After drug incubation for two hours, transfer 10 μl/well of 200 nM IGF-1 Ligand in PBS to the cells (Final Conc. is 20 nM), and incubate at 5% CO2 at 37° C. for 10 minutes.
5. Remove media and add 100 μl/well HNTG* and shake for 10 minutes. Look at cells under microscope to see if they are adequately lysed.
6. Use a 12-channel pipette to scrape the cells from the plate, and homogenize the lysate by repeated aspiration and dispensing. Transfer all the lysate to the antibody coated ELISA plate, and shake for 1 hour.
7. Remove the lysate, wash the plate, transfer anti-pTyr (1:3,000 with TBST) 100 μl/well, and shake for 30 minutes.
8. Remove anti-pTyr, wash the plate, transfer TAGO (1:3,000 with TBST) 100 μl/well, and shake for 30 minutes.
9. Remove detection antibody, wash the plate, and transfer fresh ABTS/H2O2 (1.2 μl H2O2 to 10 ml ABTS) 100 μl/well to the plate to start color development.
10. Measure OD at 410 nm with a reference wavelength of 630 nm in Dynatec MR5000.

Bounds are passed on as bounds.

Chain of EGFR (P00533 25-1210): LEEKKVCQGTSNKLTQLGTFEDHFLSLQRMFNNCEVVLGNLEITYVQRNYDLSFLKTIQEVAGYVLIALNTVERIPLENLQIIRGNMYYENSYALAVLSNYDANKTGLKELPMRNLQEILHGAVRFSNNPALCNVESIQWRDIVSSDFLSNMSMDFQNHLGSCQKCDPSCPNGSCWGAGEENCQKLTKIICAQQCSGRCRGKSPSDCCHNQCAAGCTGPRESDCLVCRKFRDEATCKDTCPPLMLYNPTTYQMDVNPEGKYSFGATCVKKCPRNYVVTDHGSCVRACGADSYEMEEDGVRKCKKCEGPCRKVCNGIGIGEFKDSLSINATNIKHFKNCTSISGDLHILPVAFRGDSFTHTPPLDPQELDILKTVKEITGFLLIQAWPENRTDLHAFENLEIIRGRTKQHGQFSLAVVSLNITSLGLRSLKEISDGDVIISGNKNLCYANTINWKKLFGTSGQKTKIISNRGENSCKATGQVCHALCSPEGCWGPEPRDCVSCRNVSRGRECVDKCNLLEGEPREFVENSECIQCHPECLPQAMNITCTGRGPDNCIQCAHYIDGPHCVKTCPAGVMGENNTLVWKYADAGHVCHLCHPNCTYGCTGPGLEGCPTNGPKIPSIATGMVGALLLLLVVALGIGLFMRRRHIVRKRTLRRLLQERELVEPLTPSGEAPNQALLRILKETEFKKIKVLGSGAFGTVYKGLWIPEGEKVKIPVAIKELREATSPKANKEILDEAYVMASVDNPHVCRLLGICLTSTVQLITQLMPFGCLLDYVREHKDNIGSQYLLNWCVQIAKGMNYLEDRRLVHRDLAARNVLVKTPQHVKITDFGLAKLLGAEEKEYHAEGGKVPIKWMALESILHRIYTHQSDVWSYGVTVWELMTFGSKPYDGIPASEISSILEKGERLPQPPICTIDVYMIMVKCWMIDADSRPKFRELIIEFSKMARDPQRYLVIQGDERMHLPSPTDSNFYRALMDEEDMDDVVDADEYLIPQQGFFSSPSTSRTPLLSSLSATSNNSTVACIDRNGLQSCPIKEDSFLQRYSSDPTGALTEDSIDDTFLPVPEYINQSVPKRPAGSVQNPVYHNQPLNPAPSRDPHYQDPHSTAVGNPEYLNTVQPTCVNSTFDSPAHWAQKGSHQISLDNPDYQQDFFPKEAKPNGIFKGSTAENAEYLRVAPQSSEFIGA
T2 sequence (P09619 33-1106, species assumed): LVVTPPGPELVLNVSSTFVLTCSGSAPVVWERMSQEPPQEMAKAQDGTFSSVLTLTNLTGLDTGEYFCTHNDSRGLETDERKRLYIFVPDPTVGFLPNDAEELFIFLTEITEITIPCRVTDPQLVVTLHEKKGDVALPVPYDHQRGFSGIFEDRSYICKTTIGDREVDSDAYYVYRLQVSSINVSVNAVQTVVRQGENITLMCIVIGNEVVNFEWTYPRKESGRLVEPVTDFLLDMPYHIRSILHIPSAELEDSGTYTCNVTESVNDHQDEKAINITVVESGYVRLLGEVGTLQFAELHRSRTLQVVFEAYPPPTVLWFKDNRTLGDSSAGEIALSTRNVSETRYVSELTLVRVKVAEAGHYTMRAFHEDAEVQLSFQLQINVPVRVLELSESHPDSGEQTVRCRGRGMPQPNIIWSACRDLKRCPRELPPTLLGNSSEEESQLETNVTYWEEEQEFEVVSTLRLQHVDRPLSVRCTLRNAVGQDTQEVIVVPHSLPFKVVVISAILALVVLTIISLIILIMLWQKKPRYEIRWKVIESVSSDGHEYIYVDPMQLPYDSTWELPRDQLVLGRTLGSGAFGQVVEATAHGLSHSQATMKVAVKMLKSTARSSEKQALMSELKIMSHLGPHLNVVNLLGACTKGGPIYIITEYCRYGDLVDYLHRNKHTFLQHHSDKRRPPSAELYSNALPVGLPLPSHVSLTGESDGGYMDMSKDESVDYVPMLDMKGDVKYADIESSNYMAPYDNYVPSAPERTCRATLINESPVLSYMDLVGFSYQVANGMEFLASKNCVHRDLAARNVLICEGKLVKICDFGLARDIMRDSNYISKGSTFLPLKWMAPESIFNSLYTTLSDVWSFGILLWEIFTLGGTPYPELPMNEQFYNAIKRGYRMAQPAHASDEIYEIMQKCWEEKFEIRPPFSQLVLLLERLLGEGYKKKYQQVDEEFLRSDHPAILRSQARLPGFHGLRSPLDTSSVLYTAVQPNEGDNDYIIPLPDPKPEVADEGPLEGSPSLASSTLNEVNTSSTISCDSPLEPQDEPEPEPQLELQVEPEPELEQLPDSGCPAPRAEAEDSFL
Chain of Pyk2 (Q14289 whole entry, species assumed): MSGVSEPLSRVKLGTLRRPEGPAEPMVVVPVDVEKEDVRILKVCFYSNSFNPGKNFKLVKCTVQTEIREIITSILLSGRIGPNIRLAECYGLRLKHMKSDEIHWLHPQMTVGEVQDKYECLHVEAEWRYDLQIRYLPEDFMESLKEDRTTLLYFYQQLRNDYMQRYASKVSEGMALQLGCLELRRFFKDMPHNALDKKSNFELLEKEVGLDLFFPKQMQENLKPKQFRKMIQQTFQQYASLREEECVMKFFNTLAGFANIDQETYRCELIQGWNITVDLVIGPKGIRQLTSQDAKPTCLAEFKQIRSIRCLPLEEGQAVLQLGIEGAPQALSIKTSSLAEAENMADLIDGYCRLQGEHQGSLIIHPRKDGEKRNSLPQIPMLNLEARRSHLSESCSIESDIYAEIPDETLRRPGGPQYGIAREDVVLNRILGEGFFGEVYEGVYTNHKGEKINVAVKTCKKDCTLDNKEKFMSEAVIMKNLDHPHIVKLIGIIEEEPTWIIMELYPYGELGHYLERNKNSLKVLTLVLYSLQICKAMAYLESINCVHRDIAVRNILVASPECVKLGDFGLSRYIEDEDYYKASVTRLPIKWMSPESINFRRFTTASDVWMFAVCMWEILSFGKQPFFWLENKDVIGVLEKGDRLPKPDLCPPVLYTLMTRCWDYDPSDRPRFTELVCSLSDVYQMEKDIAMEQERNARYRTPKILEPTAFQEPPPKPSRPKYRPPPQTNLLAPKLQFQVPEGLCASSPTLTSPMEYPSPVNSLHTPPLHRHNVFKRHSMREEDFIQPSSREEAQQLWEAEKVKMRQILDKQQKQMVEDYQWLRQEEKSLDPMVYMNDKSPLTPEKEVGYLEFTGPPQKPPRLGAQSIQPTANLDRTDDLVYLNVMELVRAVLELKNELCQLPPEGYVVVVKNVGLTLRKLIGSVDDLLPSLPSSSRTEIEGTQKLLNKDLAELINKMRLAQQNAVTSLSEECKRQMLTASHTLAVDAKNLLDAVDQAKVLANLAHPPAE
T3 sequence (P08069 31-1367): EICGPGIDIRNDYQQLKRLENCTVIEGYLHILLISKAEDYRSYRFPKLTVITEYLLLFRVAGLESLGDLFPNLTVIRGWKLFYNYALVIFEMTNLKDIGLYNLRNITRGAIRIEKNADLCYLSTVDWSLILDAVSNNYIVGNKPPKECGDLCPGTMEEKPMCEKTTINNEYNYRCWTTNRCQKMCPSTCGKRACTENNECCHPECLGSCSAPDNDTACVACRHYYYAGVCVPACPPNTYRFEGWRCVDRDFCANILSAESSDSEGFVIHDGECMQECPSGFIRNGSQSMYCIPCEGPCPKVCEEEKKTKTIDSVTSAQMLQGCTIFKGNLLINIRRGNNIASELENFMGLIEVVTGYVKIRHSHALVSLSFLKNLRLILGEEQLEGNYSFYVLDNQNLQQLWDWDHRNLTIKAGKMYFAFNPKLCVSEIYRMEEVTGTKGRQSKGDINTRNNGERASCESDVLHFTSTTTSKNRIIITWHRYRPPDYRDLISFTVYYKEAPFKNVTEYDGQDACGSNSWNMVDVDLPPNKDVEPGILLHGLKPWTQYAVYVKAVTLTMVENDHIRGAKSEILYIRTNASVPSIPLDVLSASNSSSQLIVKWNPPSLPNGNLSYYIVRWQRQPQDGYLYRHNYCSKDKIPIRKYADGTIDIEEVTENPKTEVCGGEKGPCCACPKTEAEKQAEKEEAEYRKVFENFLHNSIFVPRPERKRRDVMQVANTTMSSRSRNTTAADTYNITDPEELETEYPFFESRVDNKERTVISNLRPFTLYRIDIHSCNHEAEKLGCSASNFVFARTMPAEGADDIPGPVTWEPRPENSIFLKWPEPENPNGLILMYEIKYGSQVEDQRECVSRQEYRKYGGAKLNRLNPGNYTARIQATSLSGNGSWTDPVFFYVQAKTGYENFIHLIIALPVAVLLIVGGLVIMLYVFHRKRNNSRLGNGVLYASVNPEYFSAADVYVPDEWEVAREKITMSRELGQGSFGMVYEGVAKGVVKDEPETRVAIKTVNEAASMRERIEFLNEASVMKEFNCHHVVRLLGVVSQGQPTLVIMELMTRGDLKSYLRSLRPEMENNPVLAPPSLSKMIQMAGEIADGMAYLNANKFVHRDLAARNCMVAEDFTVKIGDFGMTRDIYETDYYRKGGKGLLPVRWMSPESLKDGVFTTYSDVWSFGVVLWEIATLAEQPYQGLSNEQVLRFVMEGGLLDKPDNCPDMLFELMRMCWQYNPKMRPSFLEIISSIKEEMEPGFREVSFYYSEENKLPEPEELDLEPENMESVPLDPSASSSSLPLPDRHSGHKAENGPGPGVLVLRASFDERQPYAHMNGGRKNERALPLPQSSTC

One may read the IC50 as the concentration that inhibits the measured activity by half. As for `Nc1ccc2c(c1)CC/C2=C1/C(=O)Nc2ccccc21` [Compound 6, 3-(5-Aminoindan-1-ylidene)-1,3-dihydroindol-2-one], the IC50 in assay [1] (50% inhibition of target PTK activity, read-out: Pyk2 IC50) is 8.1 µM; in assay [2] (50% inhibition of target PTK activity) it was greater than 100 µM; in assay [3], 5.5 µM; in assay [4], greater than 100 µM. For the same compound, the “cell IGF % Inh” value in assay [5] (concentration not given) was 96.7% Inh.
As for `COc1ccc2c(c1)/C(=C1\C(=O)Nc3ccccc31)CC2` [Compound 4, 3-(6-Methoxyindan-1-ylidene)-1,3-dihydroindol-2-one], in assay [1] (primary assay), the “Pyk2, outcome of primary assay” value is “DNH”. In addition, in assay [2] (primary assay), the “bio SRC, outcome of primary assay” value was “DNH”. The 50% inhibitory concentration (IC50) in assay [3] and in assay [4] was greater than 100 µM each time. Further, the “cell IGF, outcome of primary assay” value in assay [5] (primary assay) was “DNH”.
